Experimental findings from patent publication US5324750A, “Compositions and methods for drug delivery and chromatography” (priority 1988, dated 1994) are described below.

Structures can show the parent of a compound that is named as a salt.

Data set [1] in a line: Stability of cyclodextrin derivatives in solution / on storage (hydrolysis). The data set is classed as physicochemical.
Data set [2] can be described thus: Solubility of amino cyclodextrins compared with unsubstituted cyclodextrin. The data set is classed as physicochemical. The settings on record: water or other aqueous-based media. The source says:
Solubility--refers to solution in water or other aqueous-based media.

Regarding `[N-]=[N+]=NC[C@H]1O[C@@H]2O[C@H]3[C@H](O)[C@@H](O)[C@@H](O[C@H]4[C@H](O)[C@@H](O)[C@@H](O[C@H]5[C@H](O)[C@@H](O)[C@@H](O[C@H]6[C@H](O)[C@@H](O)[C@@H](O[C@H]7[C@H](O)[C@@H](O)[C@@H](O[C@H]1[C@H](O)[C@H]2O)O[C@@H]7CO)O[C@@H]6CO)O[C@@H]5CO)O[C@@H]4CO)O[C@@H]3CO` [6-Axido-6-Deoxy-α-Cyclodextrin, 6^A -Azido-6^A -deoxy-α-cyclodextrin], in data set [1], the stability in solution result was “not very stable in solution”.

Consider `NC[C@H]1O[C@@H]2O[C@H]3[C@H](O)[C@@H](O)[C@@H](O[C@H]4[C@H](O)[C@@H](O)[C@@H](O[C@H]5[C@H](O)[C@@H](O)[C@@H](O[C@H]6[C@H](O)[C@@H](O)[C@@H](O[C@H]7[C@H](O)[C@@H](O)[C@@H](O[C@H]8[C@H](O)[C@@H](O)[C@@H](O[C@H]1[C@H](O)[C@H]2O)O[C@@H]8CO)O[C@@H]7CO)O[C@@H]6CO)O[C@@H]5CO)O[C@@H]4CO)O[C@@H]3CO` [6^A -amino-6^A -deoxy-β-cyclodextrin hydrochloride salt], for which the solubility result in data set [2] is on record as “greater than 20 g/100 ml”.

For `CC(=O)O[C@H]1[C@H]2O[C@H]3[C@H](O)[C@@H](O)[C@@H](O[C@H]4[C@H](O)[C@@H](O)[C@@H](O[C@H]5[C@H](O)[C@@H](O)[C@@H](O[C@H]6[C@H](O)[C@@H](O)[C@@H](O[C@H]7[C@H](O)[C@@H](O)[C@@H](O[C@@H]([C@@H]1O)[C@@H](CO)O2)O[C@@H]7CO)O[C@@H]6CO)O[C@@H]5CO)O[C@@H]4CO)O[C@@H]3CO` [α-2CDOAc, 2^A -O-Acetyl-α-cyclodextrin], the hydrolysis result in data set [1] (general / in water / during purification) was “total purification could not be achieved due to hydrolysis of the product”.

For `NC[C@H]1O[C@@H]2O[C@H]3[C@H](O)[C@@H](O)[C@@H](O[C@H]4[C@H](O)[C@@H](O)[C@@H](O[C@H]5[C@H](O)[C@@H](O)[C@@H](O[C@H]6[C@H](O)[C@@H](O)[C@@H](O[C@H]7[C@H](O)[C@@H](O)[C@@H](O[C@H]8[C@H](O)[C@@H](O)[C@@H](O[C@H]1[C@H](O)[C@H]2O)O[C@@H]8CO)O[C@@H]7CO)O[C@@H]6CO)O[C@@H]5CO)O[C@@H]4CO)O[C@@H]3CO` [6^A -amino-6^A -deoxy-β-cyclodextrin, 6^A -Amino-6^A -deoxy-β-cyclodextrin], the solubility result in data set [2] is “about 4.8 g/100 ml”. In addition, the stability in solution result in data set [1] is given as “not stable in solution”.
